Results published in patent publication US9936701B2, “Herbicidal compounds” (Syngenta Participations AG, priority 2013, dated 2018).

What was measured:
[1] = system: a variety of test species; test: Pre-emergence herbicidal activity (glasshouse, sprayed one day after sowing, evaluated after 13 days); assay type: in vivo; parameters: key: 5=total damage to plant; 0=no damage to plant; settings: application pre-emergence, rate 1000 g/Ha, scale 0-5
Protocol: Seeds of a variety of test species were sown in standard soil in pots. After cultivation for one day (pre-emergence) under controlled conditions in a glasshouse (at 24/16° C., day/night; 14 hours light; 65% humidity), the plants were sprayed with an aqueous spray solution derived from the formulation of the technical active ingredient in acetone/water (50:50) solution containing 0.5% Tween 20 (polyoxyethelyene sorbitan monolaurate, CAS RN 9005-64-5). The test plants were then grown in a glasshouse under controlled conditions (at 24/16° C., day/night; 14 hours light; 65% humidity) and watered twice daily. After 13 days, the test was evaluated (5=total damage to plant; 0=no damage to plant).

[2] = system: a variety of test species; test: Post-emergence herbicidal activity (glasshouse, sprayed after 8 days cultivation, evaluated after 13 days); assay type: in vivo; parameters: key: 5=total damage to plant; 0=no damage to plant; settings: rate 1000 g/Ha, scale 0-5
Protocol: Seeds of a variety of test species were sown in standard soil in pots. After 8 days cultivation (post-emergence) under controlled conditions in a glasshouse (at 24/16° C., day/night; 14 hours light; 65% humidity), the plants were sprayed with an aqueous spray solution derived from the formulation of the technical active ingredient in acetone/water (50:50) solution containing 0.5% Tween 20 (polyoxyethelyene sorbitan monolaurate, CAS RN 9005-64-5). The test plants were then grown in a glasshouse under controlled conditions (at 24/16° C., day/night; 14 hours light; 65% humidity) and watered twice daily. After 13 days, the test was evaluated (5=total damage to plant; 0=no damage to plant).

With `CCOc1cc(N2C(=O)C(Cl)=C(C)C2O)no1` (stereo not shown) [A32] the “Pre-emergence herbicidal damage score, ABUTH” value [1] was 4, the “Pre-emergence herbicidal damage score, ALOMY” value [1] was 2 and the “Pre-emergence herbicidal damage score, AMARE” value [1] was 1. For the same compound, the “Pre-emergence herbicidal damage score, ECHCG” value [1] was 3, the “Pre-emergence herbicidal damage score, SETFA” value [1] was 1 and the “Pre-emergence herbicidal damage score, ZEAMX” value [1] was 1. The “ABUTH (Abutilon theophrasti) damage score, application post-emergence” value (“ABUTH … application post-emergence” below) [2] was 5, the “ALOMY (Alopecurus myosuroides) damage score, application post-emergence” value (“ALOMY … application post-emergence” below) [2] was 2 and the “AMARE (Amaranthus retroflexus) damage score, application post-emergence” value (from here on “AMARE … application post-emergence”) [2] was 2. For the same compound, the “ECHCG (Echinochloa crus-galli) damage score, application post-emergence” value (“ECHCG … application post-emergence” for short) [2] was 5, the “SETFA (Setaria faberi) damage score, application post-emergence” value (“SETFA (Setaria faberi) damage score” for short) [2] was 2 and the “ZEAMX (Zea mays) damage score, application post-emergence” value (“ZEAMX (Zea mays) damage score” below) [2] was 2.
In the case of `CCC(C)(CC#N)c1cc(N2C(=O)C(Cl)=C(C)C2O)no1` (stereo not shown) [A59], the “Pre-emergence herbicidal damage score, ABUTH” value [1] is reported as 5, the “Pre-emergence herbicidal damage score, ALOMY” value [1] is reported as 5 and the “Pre-emergence herbicidal damage score, AMARE” value [1] is reported as 5. For the same compound, the “Pre-emergence herbicidal damage score, ECHCG” value [1] was 5, the “Pre-emergence herbicidal damage score, SETFA” value [1] was 5 and the “Pre-emergence herbicidal damage score, ZEAMX” value [1] was 5. The “ABUTH … application post-emergence” value [2] was 5, the “ALOMY … application post-emergence” value [2] was 5 and the “AMARE … application post-emergence” value [2] was 5. For the same compound, the “ECHCG … application post-emergence” value [2] was 5, the “SETFA (Setaria faberi) damage score” value [2] was 5 and the “ZEAMX (Zea mays) damage score” value [2] was 5.
`CCCC1=C(Cl)C(=O)N(c2noc(C(C)C)c2C#N)C1O` (stereo not shown) [A69] was tested, and the “Pre-emergence herbicidal damage score, ABUTH” value [1] was 0, the “Pre-emergence herbicidal damage score, ALOMY” value [1] was 0 and the “Pre-emergence herbicidal damage score, AMARE” value [1] was 2. The “Pre-emergence herbicidal damage score, ECHCG” value [1] was 1, the “Pre-emergence herbicidal damage score, SETFA” value [1] was 1 and the “Pre-emergence herbicidal damage score, ZEAMX” value [1] was 0. The “ABUTH … application post-emergence” value [2] was 4, the “ALOMY … application post-emergence” value [2] was 2 and the “AMARE … application post-emergence” value [2] was 5. The “ECHCG … application post-emergence” value [2] was 5, the “SETFA (Setaria faberi) damage score” value [2] was 5 and the “ZEAMX (Zea mays) damage score” value [2] was 1.
For `CCCC1=C(Cl)C(=O)N(c2noc(C)c2C#N)C1O` (stereo not shown) [A70], the “Pre-emergence herbicidal damage score, ABUTH” value [1] was 0, the “Pre-emergence herbicidal damage score, ALOMY” value [1] was 1 and the “Pre-emergence herbicidal damage score, AMARE” value [1] was 5. For the same compound, the “Pre-emergence herbicidal damage score, ECHCG” value [1] was 4, the “Pre-emergence herbicidal damage score, SETFA” value [1] was 3 and the “Pre-emergence herbicidal damage score, ZEAMX” value [1] was 1. The “ABUTH … application post-emergence” value [2] was 2, the “ALOMY … application post-emergence” value [2] was 3 and the “AMARE … application post-emergence” value [2] was 5. For the same compound, the “ECHCG … application post-emergence” value [2] was 5, the “SETFA (Setaria faberi) damage score” value [2] was 5 and the “ZEAMX (Zea mays) damage score” value [2] was 1.
For `CCCC1=C(Br)C(=O)N(c2noc(C(C)(C)C#N)c2C#N)C1OC(=O)CC` (stereo not shown) [A74], the “Pre-emergence herbicidal damage score, ABUTH” value [1] was 5, the “Pre-emergence herbicidal damage score, ALOMY” value [1] was 4 and the “Pre-emergence herbicidal damage score, AMARE” value [1] was 5. For the same compound, the “Pre-emergence herbicidal damage score, ECHCG” value [1] was 5, the “Pre-emergence herbicidal damage score, SETFA” value [1] was 5 and the “Pre-emergence herbicidal damage score, ZEAMX” value [1] was 4. The “ABUTH … application post-emergence” value [2] was 5, the “ALOMY … application post-emergence” value [2] was 5 and the “AMARE … application post-emergence” value [2] was 5. For the same compound, the “ECHCG … application post-emergence” value [2] was 5, the “SETFA (Setaria faberi) damage score” value [2] was 5 and the “ZEAMX (Zea mays) damage score” value [2] was 5.
In the case of `CC(=O)OC1C(C)=C(Cl)C(=O)N1c1cc(C(C)(C)C)on1` (stereo not shown) [A75], the “Pre-emergence herbicidal damage score, ABUTH” value [1] is reported as 5, the “Pre-emergence herbicidal damage score, ALOMY” value [1] is reported as 4 and the “Pre-emergence herbicidal damage score, AMARE” value [1] is reported as 5. The “Pre-emergence herbicidal damage score, ECHCG” value [1] was 4, the “Pre-emergence herbicidal damage score, SETFA” value [1] was 4 and the “Pre-emergence herbicidal damage score, ZEAMX” value [1] was 3. The “ABUTH … application post-emergence” value [2] was 5, the “ALOMY … application post-emergence” value [2] was 5 and the “AMARE … application post-emergence” value [2] was 5. The “ECHCG … application post-emergence” value [2] was 5, the “SETFA (Setaria faberi) damage score” value [2] was 5 and the “ZEAMX (Zea mays) damage score” value [2] was 5.
For `CC1=C(Cl)C(=O)N(c2cc(C(C)(C)C)on2)C1OC(=O)C(C)C` (stereo not shown) [A76], the “Pre-emergence herbicidal damage score, ABUTH” value [1] was 5, the “Pre-emergence herbicidal damage score, ALOMY” value [1] was 4 and the “Pre-emergence herbicidal damage score, AMARE” value [1] was 5. For the same compound, the “Pre-emergence herbicidal damage score, ECHCG” value [1] was 4, the “Pre-emergence herbicidal damage score, SETFA” value [1] was 4 and the “Pre-emergence herbicidal damage score, ZEAMX” value [1] was 3. The “ABUTH … application post-emergence” value [2] was 5, the “ALOMY … application post-emergence” value [2] was 5 and the “AMARE … application post-emergence” value [2] was 5. The “ECHCG … application post-emergence” value [2] was 5, the “SETFA (Setaria faberi) damage score” value [2] was 5 and the “ZEAMX (Zea mays) damage score” value [2] was 4.
For `CC1=C(Cl)C(=O)N(c2cc(C(C)(C)C)on2)C1OC(=O)C(C)(C)C` (stereo not shown) [A77], the “Pre-emergence herbicidal damage score, ABUTH” value [1] was 1, the “Pre-emergence herbicidal damage score, ALOMY” value [1] was 1 and the “Pre-emergence herbicidal damage score, AMARE” value [1] was 4. For the same compound, the “Pre-emergence herbicidal damage score, ECHCG” value [1] was 1, the “Pre-emergence herbicidal damage score, SETFA” value [1] was 2 and the “Pre-emergence herbicidal damage score, ZEAMX” value [1] was 1. For the same compound, the “ABUTH … application post-emergence” value [2] was 1, the “ALOMY … application post-emergence” value [2] was 2 and the “AMARE … application post-emergence” value [2] was 3. The “ECHCG … application post-emergence” value [2] was 3, the “SETFA (Setaria faberi) damage score” value [2] was 2 and the “ZEAMX (Zea mays) damage score” value [2] was 1.
For `CCSC(=O)OC1C(C)=C(Cl)C(=O)N1c1cc(C(C)(C)C)on1` (stereo not shown) [A78], the “Pre-emergence herbicidal damage score, ABUTH” value [1] was 5, the “Pre-emergence herbicidal damage score, ALOMY” value [1] was 2 and the “Pre-emergence herbicidal damage score, AMARE” value [1] was 5. For the same compound, the “Pre-emergence herbicidal damage score, ECHCG” value [1] was 5, the “Pre-emergence herbicidal damage score, SETFA” value [1] was 5 and the “Pre-emergence herbicidal damage score, ZEAMX” value [1] was 2. For the same compound, the “ABUTH … application post-emergence” value [2] was 5, the “ALOMY … application post-emergence” value [2] was 5 and the “AMARE … application post-emergence” value [2] was 5. The “ECHCG … application post-emergence” value [2] was 5, the “SETFA (Setaria faberi) damage score” value [2] was 5 and the “ZEAMX (Zea mays) damage score” value [2] was 4.
With `COC(=O)OC1C(C)=C(Cl)C(=O)N1c1cc(C(C)(C)C)on1` (stereo not shown) [A81] the “Pre-emergence herbicidal damage score, ABUTH” value [1] was 5, the “Pre-emergence herbicidal damage score, ALOMY” value [1] was 4 and the “Pre-emergence herbicidal damage score, AMARE” value [1] was 5. For the same compound, the “Pre-emergence herbicidal damage score, ECHCG” value [1] was 5, the “Pre-emergence herbicidal damage score, SETFA” value [1] was 5 and the “Pre-emergence herbicidal damage score, ZEAMX” value [1] was 3. For the same compound, the “ABUTH … application post-emergence” value [2] was 5, the “ALOMY … application post-emergence” value [2] was 5 and the “AMARE … application post-emergence” value [2] was 5. The “ECHCG … application post-emergence” value [2] was 5, the “SETFA (Setaria faberi) damage score” value [2] was 5 and the “ZEAMX (Zea mays) damage score” value [2] was 4.
`CC1=C(Cl)C(=O)N(c2cc(C(C)(C)C)on2)C1OC(=O)SCC(C)C` (stereo not shown) [A82] was tested, and the “Pre-emergence herbicidal damage score, ABUTH” value [1] was 1, the “Pre-emergence herbicidal damage score, ALOMY” value [1] was 0 and the “Pre-emergence herbicidal damage score, AMARE” value [1] was 3. The “Pre-emergence herbicidal damage score, ECHCG” value [1] was 1, the “Pre-emergence herbicidal damage score, SETFA” value [1] was 1 and the “Pre-emergence herbicidal damage score, ZEAMX” value [1] was 0. The “AMARE … application post-emergence” value [2] was 2, the “ECHCG … application post-emergence” value [2] was 2 and the “SETFA (Setaria faberi) damage score” value [2] was 2. The “ZEAMX (Zea mays) damage score” value [2] was 1.
